# What was measured:
# [1] = system: PC-3 prostate cancer cells; assay: PC-3 prostate tumor xenograft; assay type: in vivo, SCID mice
# Method: (§1) PC-3 prostate cancer cells (2×10^6) were implanted s.c. into SCID mice and allowed to grow until the tumor sizes were approximately 100 mm^3. Tumors were measured bi-weekly with a digital caliper and tumor volumes were calculated as L×W×H. Each group contained 8 animals that were randomized prior to the beginning off the treatments. The results were expressed as mm^3±SEM.
# A second prostate cancer model study was conducted in a different tumor model by implanting PC-3 prostate cancer cells. PC-3 cells are also hormone-insensitive but are documented as being slightly more invasive than the DU145 cells. As was described above, the cells were implanted sub-cutaneously in SCID mice and treatments were initiated when the tumors reached a volume of approximately 100 mm^3 (designated day 1). The h16B5 injections were administered i.p. on day 1 at 5 mg/kg and continued twice per week thereafter whereas a single TxT injection at 10 mg/kg was administered i.p. on day 5.
# [2] = system: DU145 human prostate cancer cell line; assay: DU145 prostate tumor xenograft; assay type: in vivo, SCID mice; settings: 5 mg/kg i.p. twice per week
# Method: as §1, with “FIG. 6. Treatment of prostate cancer tumors with h16B5 reduces the growth of the tumors and increases their response to chemotherapy. DU145” for “PC-3”, “mm3.” for “mm^3.”, “mm^3±SEM. The P values were calculated using the Student's T test.” for “mm^3±SEM.”
# These studies were performed to measure the in vivo efficacy of h16B5 in models of human cancer. Antisense oligonucleotides and small interfering RNAs targeting clusterin have been reported to induce apoptosis and chemosensitivity in vitro in prostate cancer xenografts. The model system that was used comprised the DU145 human prostate cancer cell line that is androgen-insensitive and represents one of the most well characterized models for this disease. Thus, 2 million cells were implanted sub-cutaneously into the flanks of SCID mice and the tumors were allowed to grow to approximately 100 mm^3. Starting on day 1, h16B5 was injected intra-peritoneally (i.p.) at a dosage of 5 mg/kg and from day 4, taxotere (TxT) was injected i.p. at a dosage of 10 mg/kg. […]
# [3] = molecular target: T1, human clusterin (recombinant monomeric clusterin) (Homo sapiens, UniProt P10909); assay: BIAcore kinetic analysis of antibody binding to immobilized clusterin
# T1 construct: Recombinant monomeric clusterin was immobilized on a CM3 chip with normal amine coupling method
# T1 sequence (P10909 23-449): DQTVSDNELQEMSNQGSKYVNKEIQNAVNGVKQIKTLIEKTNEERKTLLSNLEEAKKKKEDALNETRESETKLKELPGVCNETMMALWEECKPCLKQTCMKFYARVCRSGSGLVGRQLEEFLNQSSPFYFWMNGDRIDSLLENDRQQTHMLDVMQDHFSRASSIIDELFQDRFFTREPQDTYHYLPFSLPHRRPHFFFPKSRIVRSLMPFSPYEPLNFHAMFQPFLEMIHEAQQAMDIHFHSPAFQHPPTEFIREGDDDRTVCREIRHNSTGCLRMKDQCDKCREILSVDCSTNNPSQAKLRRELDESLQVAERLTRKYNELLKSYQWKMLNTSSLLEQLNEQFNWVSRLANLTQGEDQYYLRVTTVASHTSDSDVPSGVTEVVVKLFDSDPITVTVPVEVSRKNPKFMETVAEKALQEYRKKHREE
# Method: The purpose of these investigations is to determine the kinetics parameters of anti-clusterin antibodies. In particular, to determine whether the humanization of the 16B5 and 21B12 anti-clusterin monoclonal antibody affects the kinetics parameters of its binding to human clusterin. To this end, a kinetic analysis method was developed using the BIAcore 3000. Human clusterin was immobilized on a sensor chip. Full length antibodies or Fab fragments were injected and allowed to interact with the immobilized clusterin. This example described the exemplary antibody 16B5 but the 21B12 exemplary antibody was prepared and tested in a similar manner.
# HBST (10 mM Hepes pH 7.4, 135 mM NaCl, 3.4 mM EDTA, 0.005% Tween 20) was used as running buffer for all BIAcore experiments. Recombinant monomeric clusterin was immobilized on a CM3 chip with normal amine coupling method at a flow of 5 μl/min. Surface was activated with 35 μl of a mixture of 50 mM NHS/0.2M EDC. Clusterin in 10 mM Na-acetate pH 4.5 was injected until a desired amount was captured (below 60RU). Unreacted esters were deactivated with 35 μL1 of 1M ethanolamine hydrochloride-NaOH pH8.5. A control surface was prepared by injecting NHS/EDC and ethanolamine in the same manner.
# Kinetics analysis was conducted at a flow of 50 μl/min. Full length antibodies (mouse or humanized) or Fab were diluted in HBST. Concentration range was from 1.953-31.25 nM for the full length antibodies and 15.625-250 nM for the Fab. Each concentration was injected over the clusterin and a control surface for 5 min followed with a 5 min dissociation wash. The clusterin surface was regenerated between each antibody injection with 50 μl of 20 mM HCl.
substance,measurement,setting,value
"h16B5: humanized anti-clusterin IgG2 antibody, heavy chain SEQ ID NO.:9 and light chain SEQ ID NO.:10",increase in overall survival,[1]; 5 mg/kg i.p. twice per week,47%
same,mice remaining alive,[1]; day 43 (no remaining animals in the control group),greater than 60%
same,reduction in average tumor size compared to the control group,"[1]; day 43, 5 mg/kg i.p. twice per week",37%
same,survival of the animals,[1]; h16B5 in combination with TxT,extended the survival
same,growth of the (primary) tumors compared to the control,[2],significantly reduced
same,kinetics parameters compared with the parent mouse antibody,"[3]; full length vs full length, Fab vs Fab",very similar
same,KD of the interaction with immobilized human clusterin,[3]; stated in words,low nM range

# Reference: patent publication US8802826B2, “Anti-clusterin antibodies and antigen binding fragments and their use to reduce tumor volume” (Alethia Biotherapeutics Inc., priority 2009, dated 2014)
